Values after ≈ are worked out from the molar mass of the structure shown. Active and inactive are the calls of the source. No cut-off for these calls is given here.
Columns and labels:
Trichophyton rubrum = test: Antifungal activity against Trichophyton rubrum assessed as reduction in microbial growth after 48 hrs by microdilution method; type: functional
Candida albicans [1] = test: Antifungal activity against fluconazole-resistant Candida albicans Gu5 assessed as reduction in microbial growth; type: functional
[2] = Ratio of MFC for fungicidal activity against Saccharomyces cerevisiae ATCC 9763 to MIC for antifungal activity against Saccharomyces cerevisiae ATCC 9763; type: functional
Nakaseomyces glabratus [3] = test: Fungicidal activity against Candida glabrata DSM 11226; type: functional
Candida albicans [4] = test: Antibiofilm activity against Candida albicans ATCC 10231 at concentration of 0.25 MIC by XTT assay; type: functional, organism-based
Candida albicans [5] = test: Growth inhibition of Candida albicans ATCC 10231 assessed as reduction in yeast to mycelium formation by measuring reduction in hyphal growth at concentration of 0.25 MIC after 3 hrs in YPG medium by light microscopic method relative to control; type: functional, organism-based
Candida albicans [6] = test: Fungicidal activity against Candida albicans ATCC 10231 assessed as bacterial killing at concentration of 0.25 MIC after 5 hrs relative to control; type: functional
Candida albicans [7] = test: Fungicidal activity against Candida albicans ATCC 10231 assessed as bacterial killing at concentration of 2 MIC after 5 hrs relative to control; type: functional
Candida parapsilosis [8] = test: Antifungal activity against Candida parapsilosis ATCC 22019 assessed as reduction in microbial growth; type: functional; conditions: Lodderomyces parapsilosis
Candida albicans [9] = test: Antifungal activity against fluconazole-resistant Candida albicans B4 assessed as reduction in microbial growth; type: functional
Escherichia coli = test: Antibacterial activity against Escherichia coli ATCC 10536 assessed as reduction in microbial growth incubated for 48 hrs by photometric method; type: functional
Candida albicans [10] = test: Antifungal activity against fluconazole-resistant Candida albicans F5 assessed as reduction in microbial growth; type: functional
Saccharomyces cerevisiae [11] = test: Fungicidal activity against Saccharomyces cerevisiae ATCC 9763; type: functional
Saccharomyces cerevisiae [12] = test: Inhibition of Saccharomyces cerevisiae DNA topoisomerase 2 assessed as decrease in relaxation of supercoiled DNA using supercoiled pBR322 plasmid DNA at 1 to 200 uM gel electrophoresis method; conditions: dose 1-200 µM
Candida albicans [13] = test: Fungicidal activity against Candida albicans ATCC 10231 assessed as bacterial killing at concentration of 0.5 MIC after 5 hrs relative to control; type: functional
Candida albicans [14] = test: Fungicidal activity against Candida albicans ATCC 10231 assessed as bacterial killing at concentration of 4 MIC after 5 hrs relative to control; type: functional
Candida albicans [15] = test: Antifungal activity against fluconazole-sensitive Candida albicans B3 assessed as reduction in microbial growth; type: functional
Candida albicans [16] = test: Antifungal activity against Candida albicans ATCC 10231 assessed as reduction in microbial growth; type: functional
Pichia kudriavzevii [17] = test: Antifungal activity against Candida krusei ATCC 6258 assessed as reduction in microbial growth; type: functional
Saccharomyces cerevisiae [18] = test: Antifungal activity against Saccharomyces cerevisiae ATCC 9763 assessed as reduction in microbial growth; type: functional
Candida albicans [19] = test: Fungicidal activity against Candida albicans ATCC 10231 assessed as bacterial killing after 5 hrs; type: functional, organism-based
Nakaseomyces glabratus [20] = test: Antifungal activity against Candida glabrata ATCC 90030 assessed as reduction in microbial growth; type: functional
Candida albicans [21] = test: Antifungal activity against fluconazole-sensitive Candida albicans F2 assessed as reduction in microbial growth; type: functional
Candida albicans [22] = test: Fungicidal activity against Candida albicans ATCC 10231 assessed as bacterial killing at concentration of 0.25 to 4 MIC after 1 hrs relative to control; type: functional
Pichia kudriavzevii [23] = test: Fungicidal activity against Candida krusei DSM 6128; type: functional
Candida albicans [24] = test: Fungicidal activity against Candida albicans ATCC 10231 assessed as bacterial killing at concentration of MIC after 5 hrs relative to control; type: functional
Candida albicans [25] = test: Antifungal activity against Candida albicans CNCM 1180-79 assessed as reduction in microbial growth incubated for 72 hrs by photometric method; type: functional
Candida albicans [26] = test: Growth inhibition of Candida albicans ATCC 10231 assessed as reduction in yeast to mycelium formation by measuring reduction in hyphal growth at 0.25 MIC after 3 hrs by light microscopic method relative to control; type: functional
Staphylococcus aureus = test: Antibacterial activity against Staphylococcus aureus ATCC 9144 assessed as reduction in microbial growth incubated for 48 hrs by photometric method; type: functional
Candida albicans [27] = test: Antifungal activity against fluconazole-sensitive Candida albicans Gu4 assessed as reduction in microbial growth; type: functional
Candida albicans [28] = test: Fungicidal activity against Candida albicans ATCC 10231; type: functional
Candida albicans [29] = test: Growth inhibition of Candida albicans ATCC 10231 assessed as reduction in yeast to mycelium formation by measuring reduction in hyphal growth at concentration of 0.25 MIC after 3 hrs in G1cNAc medium by light microscopic method relative to control; type: functional, organism-based
Candida albicans [30] = test: Antibiofilm activity against Candida albicans at 256 ug/ml relative to control; type: functional
Candida albicans [31] = test: Fungicidal activity against Candida albicans ATCC 10231 assessed as bacterial killing at concentration of 4 MIC after 1 hrs relative to control; type: functional
Candida parapsilosis [32] = test: Fungicidal activity against Candida parapsilosis DSM 5784; type: functional; conditions: Lodderomyces parapsilosis
Candida albicans [33] = test: Fungicidal activity against Candida albicans ATCC 10231 assessed as bacterial killing at concentration of 2 MIC after 1 hrs relative to control; type: functional

Row | SMILES | Ratio [2] | MFC (Nakaseomyces glabratus [3]) [µg/mL] | Activity (Candida albicans [4]) | Activity (Candida albicans [6]) [%] | Activity (Candida albicans [7]) [%] | MIC90 (Candida parapsilosis [8]) [µg/mL] | MFC (Saccharomyces cerevisiae [11]) [µg/mL] | MIC90 (Candida albicans [16]) [µg/mL] | MIC90 (Pichia kudriavzevii [17]) [µg/mL] | MIC90 (Saccharomyces cerevisiae [18]) [µg/mL] | MIC90 (Nakaseomyces glabratus [20]) [µg/mL] | MFC (Pichia kudriavzevii [23]) [µg/mL] | Activity (Candida albicans [24]) [%] | growth inhibition (GI) (Candida albicans [26]) | MFC (Candida albicans [28]) [µg/mL] | other results
1 | O=c1c2cc(O)c(O)c(O)c2[nH]c2cc(O)cc(O)c12 | – | – | – | – | – | – | – | – | – | – | – | – | – | – | – | MIC (Trichophyton rubrum): 15.6 µg/mL
2 | Cc1ccc([N+](=O)[O-])c2c(NCCO)c3ccccc3nc12 | >=1 | > 64 | Active | 5 | 70 | 64 | 0.5 (≈ 1.68 µM) | 1 | 8 | 0.5 | 8 | 16 (≈ 53.8 µM) | 60 | inactive | 2 (≈ 6.73 µM) | MIC90 (Candida albicans [1]): 32 µg/mL; growth inhibition (GI) (Candida albicans [5]): inactive; MIC90 (Candida albicans [9]): > 64 µg/mL; MIC (Escherichia coli): 50 µg/mL; MIC90 (Candida albicans [10]): > 64 µg/mL; inhibition (Saccharomyces cerevisiae [12]): inactive; Activity (Candida albicans [13]): 5%; Activity (Candida albicans [14]): 80%; MIC90 (Candida albicans [15]): 4 µg/mL; Activity (Candida albicans [19]): Dose-dependent effect; MIC90 (Candida albicans [21]): 2 µg/mL; Activity (Candida albicans [22]): 10%; MIC (Candida albicans [25]): 50 µg/mL; MIC (Staphylococcus aureus): 50 µg/mL; MIC90 (Candida albicans [27]): 4 µg/mL; growth inhibition (GI) (Candida albicans [29]): inactive
3 | CCN(CC)CCCC(C)Nc1c2ccc(Cl)cc2nc2ccc(OC)cc12 (stereo unspecified) [QUINACRINE] | – | – | – | – | – | – | – | – | – | – | – | – | – | – | – | Activity (Candida albicans [30]): 50%
4 | C[C@@H]1[C@H](O)[C@@H](C)/C=C/C=C/C=C/C=C/C=C/C=C/C=C/[C@H](O[C@@H]2O[C@H](C)[C@@H](O)[C@H](N)[C@@H]2O)C[C@@H]2O[C@](O)(C[C@@H](O)C[C@@H](O)[C@H](O)CC[C@@H](O)C[C@@H](O)CC(=O)O[C@H]1C)C[C@H](O)[C@H]2C(=O)O [AMPHOTERICIN B] | >=1 | 2 (≈ 2.16 µM) | Active | 70 | 100 | 1 | 2 (≈ 2.16 µM) | 0.5 | 1 | 0.5 | 1 | 2 (≈ 2.16 µM) | 100 | 100% | 2 (≈ 2.16 µM) | Activity (Candida albicans [31]): 100%; MFC (Candida parapsilosis [32]): 2 µg/mL (≈ 2.16 µM); Activity (Candida albicans [33]): 100%

Source: ChEMBL document CHEMBL4715897, “A new 1-nitro-9-aminoacridine derivative targeting yeast topoisomerase II able to overcome fluconazole-resistance” (2021)
